Test results as given in patent US20140295417A1, “IDENTIFICATION OF ANTIBIOTIC RESISTANCE” (priority 2011, published 2014).
Where two headings read alike, the source gives them in different places.

Assays:
[1] = test system: ESBL, Extended Spectrum β-Lactamase Acinetobacter; assay: Binding of fluorescently labelled antibiotic, resistant vs non-resistant form (Table 3); format: cell-based; settings: increase of binding; fluorescent-labelled antibiotic, resistant relative to non-resistant form
Experimental: (§1) Table 3: Antibiotic resistance mechanism in clinically relevant micro-organisms and alteration in the amount of antibiotics in resistant micro-organisms. The alteration of the amount of detectable labelled antibiotics in micro-organisms in its resistant form is determined relative to its non-resistant form. The amount is expressed in % change of fluorescence (decrease and increase, respectively) of an antibiotic which carries a fluorescent label.

[2] = test system: ESBL, Extended Spectrum β-Lactamase Enterobacteriaceae; assay: as above; format: cell-based; settings: increase of binding; fluorescent-labelled antibiotic, resistant relative to non-resistant form
Experimental: as §1

[3] = test system: ESBL, Extended Spectrum β-Lactamase Pseudomonas spp.; assay: as above; format: cell-based; settings: increase of binding; fluorescent-labelled antibiotic, resistant relative to non-resistant form
Experimental: as §1

[4] = test system: ESBL, Extended Spectrum β-Lactamase Stenotrophomonas maltophilla; assay: as above; format: cell-based; settings: increase of binding; fluorescent-labelled antibiotic, resistant relative to non-resistant form
Experimental: as §1

[5] = test system: ESBL, Extended Spectrum β-Lactamase BCC; assay: as above; format: cell-based; settings: increase of binding; fluorescent-labelled antibiotic, resistant relative to non-resistant form
Experimental: as §1

23S rRNA = settings: cited from earlier work
[6] = test system: HLAR, High level Aminoglycoside Resistance in Enterococci; assay: Binding of fluorescently labelled antibiotic, resistant vs non-resistant form (Table 3); format: cell-based; settings: resistant relative to non-resistant form
Experimental: as §1

[7] = test system: CA-MRSA, Community acquired MRSA; format: cell-based, Staphylococcus aureus; settings: resistant relative to non-resistant form
Experimental: as §1

[8] = test system: VRE, Vancomycin resistant Enterococci; settings: mechanism column; reduction of affinity in resistant form; cited from earlier work
[9] = test system: VRS, Vancomycin resistant Staph; assay: Binding of fluorescently labelled antibiotic, resistant vs non-resistant form (Table 3); format: cell-based, Staphylococci (CNS); settings: increased binding; fluorescent-labelled antibiotic, resistant relative to non-resistant form
Experimental: as §1

[10] = test system: VRE, Vancomycin resistant Enterococci; assay: as above; format: cell-based; settings: resistant relative to non-resistant form
Experimental: as §1

[11] = test system: VISA, Vancomycin intermediary SA; assay: as above; format: cell-based, Staphylococcus aureus; settings: increased binding; fluorescent-labelled antibiotic, resistant relative to non-resistant form
Experimental: as §1

[12] = test system: MRSA, Methicillin Resistant SA; assay: as above; format: cell-based, Staphylococcus aureus; settings: resistant relative to non-resistant form
Experimental: as §1

[13] = test system: ORSA, Oxacillin resistant SA; assay: as above; format: cell-based, Staphylococcus aureus; settings: resistant relative to non-resistant form
Experimental: as §1

[14] = test system: BORSA, Border line oxacillin resistant SA; assay: as above; format: cell-based, Staphylococcus aureus; settings: resistant relative to non-resistant form
Experimental: as §1

[15] = reduction of binding, fluorescent-labelled antibiotic

In the case of `O=C(O)[C@H]1/C(=C/CO)O[C@@H]2CC(=O)N21` [clavulanic acid], the “% Change in Fluorescenc” value [1] is reported as over 80%, the “% Change in Fluorescenc” value [2] is reported as over 80% and the “% Change in Fluorescenc” value [3] is reported as over 80%. The “% Change in Fluorescenc” value [4] was over 80% and the “% Change in Fluorescenc” value [5] was over 80%.
For `[H]/N=C(/N)N[C@H]1[C@H](O)[C@@H](O)[C@H](O[C@@H]2O[C@@H](C)[C@](O)(C=O)[C@H]2O[C@@H]2O[C@@H](CO)[C@H](O)[C@@H](O)[C@@H]2NC)[C@@H](N/C(N)=N\[H])[C@@H]1O` [Streptomycin], the Phenotype (23S rRNA; 23S rRNA position 2661, "G to C", E. coli, when expressed with Smr, hyperaccurate S12 mutation) is given as “streptomycin dependent”, the “% Change in Fluorescenc” value [6, 15] is given as over 80% reduction and the “Effect of resistance on fluorescence” value [6] is given as “Reduction in Streptomycin binding”.
In the case of `COc1cc(Cc2cnc(N)nc2N)cc(OC)c1OC` [trimethoprim], the “Effect of resistance on fluorescence” value [7] is reported as “binding. Maintaims binding”.
In the case of `O=C(N[C@H](CO)[C@H](O)c1ccc([N+](=O)[O-])cc1)C(Cl)Cl` [Chloramphenicol], the Phenotype (23S rRNA; 23S position 2061 G to A, Rat mitochondria, Vester and Garrett 1988) is listed as “resistance”, the Phenotype (23S rRNA; 23S position 2062 A to C, Halobacterium halobium, Mankin and Garrett 1991) is listed as “resistance” and the Phenotype (23S rRNA; 23S rRNA position 2447 "G to A", Yeast mitochondria) is listed as “resistance”. For the same compound, the Phenotype (23S rRNA; 23S rRNA position 2451 "A to U", Mouse mitochondria) was “resistance”, the Phenotype (23S rRNA; 23S rRNA position 2452 "C to A", Human mitochondria) was “resistance” and the Phenotype (23S rRNA; 23S rRNA position 2452 "C to U", Halobacterium halobium (Mankin and Garrett 1991)) was “resistance”. The Phenotype (23S rRNA; 23S rRNA position 2452 "C to U", Mouse mitochondria) was “resistance”, the Phenotype (23S rRNA; 23S rRNA position 2503 "A to C", Yeast mitochondria) was “resistance” and the Phenotype (23S rRNA; 23S rRNA position 2504 "U to C", Human mitochondria) was “resistance”. The Phenotype (23S rRNA; 23S rRNA position 2504 "U to C", Mouse mitochondria) was “resistance”.
In the case of `CN[C@H](CC(C)C)C(=O)N[C@H]1C(=O)N[C@@H](CC(N)=O)C(=O)N[C@H]2C(=O)N[C@H]3C(=O)N[C@H](C(=O)N[C@H](C(=O)O)c4cc(O)cc(O)c4-c4cc3ccc4O)[C@H](O)c3ccc(c(Cl)c3)Oc3cc2cc(c3O[C@@H]2O[C@H](CO)[C@@H](O)[C@H](O)[C@H]2O[C@H]2C[C@](C)(N)[C@H](O)[C@H](C)O2)Oc2ccc(cc2Cl)[C@H]1O` [Vancomycin], the “Reduced affinity to Van” value [8] is given as “Reduced affinity to Van by 3 orders of magnitude”, the “% Change in Fluorescenc” value [9] is given as over 50% and the “% Change in Fluorescenc” value [10, 15] is given as over 80%. The “Effect of resistance on fluorescence” value [10] was “Reduction of vancomycin” and the “% Change in Fluorescenc” value [11] was 20-50%.
For `CC[C@H]1OC(=O)[C@H](C)[C@@H](O[C@H]2C[C@@](C)(OC)[C@@H](O)[C@H](C)O2)[C@H](C)[C@@H](O[C@@H]2O[C@H](C)C[C@H](N(C)C)[C@H]2O)[C@](C)(O)C[C@@H](C)C(=O)[C@H](C)[C@@H](O)[C@]1(C)O` [eyrthomycin], the “Phenotype: growth rate” value (23S rRNA; 23S rRNA 2017 U to G, E. coli) is given as “Reduced growth”.
For `CC[C@H]1OC(=O)[C@H](C)[C@@H](O[C@H]2C[C@@](C)(OC)[C@@H](O)[C@H](C)O2)[C@H](C)[C@@H](O[C@@H]2O[C@H](C)C[C@H](N(C)C)[C@H]2O)[C@](C)(O)C[C@@H](C)C(=O)[C@H](C)[C@@H](O)[C@]1(C)O` [Ery], the Phenotype (23S rRNA; 23S position 2058 A to U, double mutation (A2058U/G2032A), E. coli, Douthwaite 1992) is given as “hs”, the Phenotype (23S rRNA; 23S rRNA 2032 G to A, double mutation (G2032A/A2058U), E. coli) is given as “hs” and the Phenotype (23S rRNA; 23S rRNA 2057 G to A, double mutation (G2057A/C2661U), E. coli) is given as “Slightly Eryr;”. The Phenotype (23S rRNA; 23S rRNA position 2611, "C to G", Chlamydomonas reinhardtii (Harris et al. 1989)) was “Eryr”, the Phenotype (23S rRNA; 23S rRNA position 2611, "C to U", double mutation (C2611U/G2057A), E. coli (Vester et al. 1995)) was “Slightly Eryr; reduced” and the Phenotype (23S rRNA; 23S rRNA position 2611, "C to U", Chlamydomonas reinhardtii (Harris et al. 1989)) was “Eryr”.
In the case of `CSC[S@+]([O-])C[C@H](CO)NC(=O)/C=C/c1c(C)[nH]c(=O)[nH]c1=O` [sparsomycin], the “Phenotype (resistance)” value (23S rRNA; 23S rRNA position 2452 "C to U", Halobacterium halobium (Tan et al. 1996)) is listed as “Low level sparsomycin”.
In the case of `CC[C@H]1OC(=O)[C@H](C)[C@@H](O[C@H]2C[C@@](C)(OC)[C@@H](O)[C@H](C)O2)[C@H](C)[C@@H](O[C@@H]2O[C@H](C)C[C@H](N(C)C)[C@H]2O)[C@](C)(OC)C[C@@H](C)C(=O)[C@H](C)[C@@H](O)[C@]1(C)O` [Clarithromycin], the Phenotype (23S rRNA; 23S position 2058 A to G, Helecobacter pylori, Versalovic 1996) is given as “resistance”.
In the case of Penicillin [listing 1 of 2 here], the “% Change in Fluorescenc” value [7, 15] is reported as “> to ≈80%”, the “% Change in Fluorescenc” value [12, 15] is reported as “> to ≈80%” and the “Effect of resistance on fluorescence” value [12] is reported as “Reduction of Penicillin binding”. For the same compound, the “% Change in Fluorescenc” value [13, 15] was “> to ≈80%” and the “% Change in Fluorescenc” value [14, 15] was “> to ≈80%”.
With Penicillin [listing 2 of 2 here] the “Effect of resistance on fluorescence” value [7] was “Reduction of Penecillin”, the “Effect of resistance on fluorescence” value [13] was “Reduction of Penecillin” and the “Effect of resistance on fluorescence” value [14] was “Reduction of Penecillin”.
